Laboratory results reported in patent US4764509A, “Pharmaceutical compositions containing di-gold phosphine” (SmithKline Beckman Corporation, priority 1987, dated 1988).
Where “and” joins values, the source holds several entries; their conditions need not be identical. Equal values may be shown once.

Tests used:
P388 leukemia = assay: in vivo ip P388 lymphocytic leukemia mouse model (increase in lifespan); set-up: species or system mouse (B6D2F1); details: ip Days 1 through 5; figures separated by slashes are from separate experiments; ≥25 percent ILS considered active
Excerpt: P388 lymphocytic leukemia is currently the most widely used animal tumor model for screening for antitumor agents and for detailed evaluation of active compounds. This tumor system is widely accepted as an antitumor agent screening tool because it is sensitive to virtually all of the clinically active antineoplastic agents; quantitative and reproducible; amenable for large-scale screening; and predictive for activity in other animal tumor models.
(§1) 10^6 P388 leukemia cells are inoculated ip in B6D2F1 mice. Twenty-four hours later, if the tumor inoculum proves to be free of bacterial contamination (as determined by 24 hours incubation in thioglycollate broth), animals are randomized into groups of 6 and housed in shoebox cages. The compound to be evaluated is dissolved in a minimal volume of either N,N-dimethylacetamide (DMA) or 95% ethanol (depending upon solubility). An equal volume of saline is added; if the drug comes out of solution an equal volume of polyethoxylated castor oil is added and then saline qs to a concentration such that the desired dose is delivered in 0.5 ml. The final concentration of DMA, ethanol and polyethoxylated castor oil is 10 percent. […] Animals are monitored daily for mortality and experiments are terminated after 45 days. […]

[1] = maximally tolerated dose in mice, ip qD x 10 regimen (B16 experiment); assay type: in vivo, mouse (B6D2F1); details: B6D2F1 mice, ip qD × 10 regimen
Description: (§2) In this system, groups of eight B6D2F1 mice are inoculated ip with 0.5 ml of a 10% (w:v) brei of B16 melanoma prepared from pooled sc tumors excised at 14-21 days from […] donor mice. Daily treatment is begun 24 hours after tumor implantation and is continued daily for ten (10) days. The route of drug administration is ip. The mice are monitored daily for survival for sixty (60) days. Antitumor activity is assessed by prolongation of median survival time. An ILS of ≥25% indicates activity in this tumor model.
^(b) maximally tolerated dose for B6D2F1 mice on a ip qD ×

B16 melanoma = assay: in vivo ip B16 melanoma assay (increase in lifespan); set-up: species or system mouse (B6D2F1); details: ip daily for ten (10) days; ILS of ≥25% indicates activity
Description: as §2

[2] = maximally tolerated dose in mice, ip qDx5 regimen (P388 experiment); assay type: in vivo, mouse (B62DF female); details: B62DF female mice
Description: as §1, with “percent. Dilutions for lower doses are made with saline so there is a decreasing proportion of organic solvents in the vehicle with decreasing dosage These vehicles provide soluble formulations (or suspensions). Formulations are prepared immediately prior to injection. The compound is administered ip on Days 1 through 5 (i.e. treatment is initiated 24 hrs after tumor inoculation). Each experiment includes three groups of 6 animals as untreated controls and animals treated with a positive control, cisplatin, at two dose levels.” for “percent.”

[3] = Struck et al. 1966; cited from earlier work

Compound	ILS (max): maximum increase in lifespan, mice bearing ip P388 leukemia (P388 leukemia)	MTD (maximally tolerated dose) [1] [mg/kg]	ILS: maximum increase in lifespan, mice bearing ip B16 melanoma (B16 melanoma) [%]	MTD (maximally tolerated dose) [2] [mg/kg]	cytotoxic activity (in words) [3]
Dichlorobis[1,2-bis(diphenylphosphino)ethane]digold [Compound 1]	81% and 91% and 55%	4	35	8	–
Dichlorobis[1,2-bis(diethylphosphino)ethane]digold [Compound 2]	29%	–	–	16	–
c1ccc(P(CCP(c2ccccc2)c2ccccc2)c2ccccc2)cc1 [1,2-bis(diphenylphosphino)ethane]	–	–	–	–	cytotoxic activity
